Experimental data taken from paper PMC11500415, “Chemical inhibition of stomatal differentiation by perturbation of the master-regulatory bHLH heterodimer via an ACT-Like domain” (Nature Communications, 2024).
Several values for one entry are separate records, joined by “and”; a condition that tells them apart may be missing. Equal values may be shown once. Read-outs that look alike come from different tables or passages of the source.

Target: T1, SPCH (Arabidopsis thaliana, UniProt Q700C7)
T1 construct: ΔNSPCH (98-364); made in house; host or cells: E. coli BL21
Experiment: BLI direct binding
Set-up: species or system A. thaliana
Text: A. thaliana SCRM (1-494), ΔNSPCH (98-364), MUTE (1-202), ΔNFAMA (190-414), MUTEΔC (1-114), MUTER133A_R134A, MUTEE162A_E163A, MUTER133A_R134A_E162A_E163A, SCRM-ACTL (405-494), MUTE-ACTL (114-202), SPCH-ACTL (285-364), FAMA-ACTL (306-414), MUTE_ACTLR133A_R134A, MUTE_ACTLE162A_E163A, MUTE_ACTLR133A_R134A_E162A_E163A were cloned into pGEX-4T-1 vector with an N-terminal GST tag and a thrombin cleavage sequence. For protein expression, the constructs were transformed into E. coli strain BL21. For each transformant, a single colony was selected and incubated in 10 ml LB liquid media. The overnight-incubated E. coli suspensions were transferred to 1 L LB medium and incubated at 37 °C for around 2 h until the OD600 reached 0.4–0.6. The isopropyl β-D-1-thiogalactopyranoside ([…] of final concentration) was added to the cultures and the strains were incubated at 22 °C for a further 18 h. GST-fused proteins were purified using glutathione agarose resin. The soluble portion of the cell lysate was loaded onto a GST-Sepharose column. Nonspecifically bound proteins were removed by washing the column with 20 mM Tris pH 8.0, 200 mM NaCl. The bound GST-fused protein was eluted with 10 mm glutathione and 20 mM Tris pH 8.0, 200 mM NaCl. The GST-fused proteins were exchanged with phosphate-buffered saline buffer, and then the solution was treated with 50 μg of thrombin for 10–12 h at 16 ^οC. The GST portion of the protein was cleaved during thrombin digestion, and then the whole solution was reloaded onto the glutathione S-transferase column to obtain pure protein. The purified proteins were further purified by gel filtration on a Superdex-200 (GE) column using fast protein liquid chromatography and phosphate buffer (pH 7.2) as the eluent. The purity of the protein was checked by SDS-PAGE. For detailed lists of oligo DNA and plasmid information, see Supplementary Tables 5, 6, respectively.
The binding affinities of SCRM to MUTE / MUTER133A_R134A / MUTEE162A_E163A / MUTER133A_R134A_E162A_E163A in presence and absence of Stomidazolone (3) and its analogues (AYSJ1059 (5) and AYSJ1061 (6)), and Stomidazolone / AYSJ1059 / AYSJ1061 interactions with GST-tagged SCRM, MUTE, SPCH, FAMA, MUTE ΔACTL, MUTE_ACTL, SCRM_ACTL, SPCH_ACTL and FAMA_ACTL, MUTER133A_134A, MUTEE162A_E163A, MUTER133A_R134A_E162A_E163A were measured using the Octet Red96 system (ForteBio, Pall Life Sciences) following the manufacturer’s protocols. The optical probes coated with anti-GST were first loaded with 500 nM GST tagged proteins before kinetic binding analyses. The experiment was performed in 96-well plates maintained at 30 °C. Each well was loaded with 200 μL reaction volume for the experiment. The binding buffer used in these experiments contained 1× PBS supplemented with 2% DMSO, 0.02% Tween20. […] There was no binding of the analytes to the unloaded probes as shown by the control wells. Binding kinetics to all seven concentrations of the analytes were measured simultaneously using default parameters on the instrument. The data were analyzed using the Octet data analysis software. The association and dissociation curves were fit with the 1:1 homogeneous ligand model. The kobs (observed rate constant) values were used to calculate Kd, with steady-state analysis of the direct binding. See Supplementary Table 3 for details.

[1] = SPCH, Conc. (µM) 3.12, rep-1, rep-2
[2] = SPCH, Conc. (µM) 6.25, rep-1, rep-2
[3] = SPCH, Conc. (µM) 12.5, rep-1, rep-2
[4] = SPCH, Conc. (µM) 50, rep-1, rep-2
[5] = SPCH, Conc. (µM) 100, rep-1, rep-2
[6] = SPCH, Conc. (µM) 200, rep-1, rep-2

T1 sequence (Q700C7 98-364): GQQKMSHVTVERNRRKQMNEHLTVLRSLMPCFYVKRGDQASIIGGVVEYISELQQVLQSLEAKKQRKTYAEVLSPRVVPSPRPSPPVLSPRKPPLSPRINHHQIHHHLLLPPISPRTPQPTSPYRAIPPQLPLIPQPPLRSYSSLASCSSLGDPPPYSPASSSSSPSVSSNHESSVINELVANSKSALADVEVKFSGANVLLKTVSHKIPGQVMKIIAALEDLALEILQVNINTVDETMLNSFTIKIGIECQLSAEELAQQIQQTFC

O=C1C(c2ccccc2)=NC(NS(=O)(=O)c2ccccc2)(c2ccccc2)N1S(=O)(=O)c1ccccc1 (centres unmarked) [Stomidazolone]
Kd (BLI steady state, SPCH, read-out: KD (SS)): 85.2 ± 6.8 µM
Kd (BLI, SPCH, read-out: KD): 75.6 ± 0.7 µM
kdis (SPCH loaded on Anti-GST sensor, fit per sensor, Stomid Conc. (mM) 200-3.12, rep-1, rep-2): 0.319 s⁻¹ and 0.323 s⁻¹ and 0.32 s⁻¹ and 0.325 s⁻¹ and 0.33 s⁻¹ and 0.326 s⁻¹
kon (SPCH loaded on Anti-GST sensor, fit per sensor, Stomid Conc. (µM) 200-3.12, rep-1, rep-2): 4280 M⁻¹ s⁻¹ and 4310 M⁻¹ s⁻¹ and 4320 M⁻¹ s⁻¹ and 4400 M⁻¹ s⁻¹ and 4290 M⁻¹ s⁻¹ and 4340 M⁻¹ s⁻¹ and 4360 M⁻¹ s⁻¹
Kd (SPCH loaded on Anti-GST sensor, fit per sensor, Stomid Conc. (µM) 200-3.12, rep-1, rep-2, read-out: KD): 75.4 µM and 76.8 µM and 74.1 µM and 73.1 µM and 74.8 µM and 72.6 µM and 75.2 µM and 76.7 µM and 76.9 µM and 74.4 µM
RMax [1]: 0.03 and 0.0213
Req/Rmax(%) [1]: 100%
Response [1]: 0.0312 and 0.0213
RMax [2]: 0.062 and 0.0321
Req/Rmax(%) [2]: 97% and 100%
Response [2]: 0.0608 and 0.0321
RMax [3]: 0.067 and 0.0781
Response [3]: 0.065 and 0.0781
RMax [4]: 0.135 and 0.1621
Req/Rmax(%) [4]: 89%
Response [4]: 0.1334 and 0.1621
RMax [5]: 0.235 and 0.2711
Response [5]: 0.233 and 0.2711
RMax [6]: 0.335 and 0.323
Req/Rmax(%) [6]: 98%
Response [6]: 0.3311 and 0.323
koff (read-out: kdis(1/s), SPCH loaded on Anti-GST sensor, fit per sensor, Stomid Conc. (mM) 200-3.12, rep-1, rep-2): 0.329 s⁻¹
kon (read-out: kon(1/Ms), SPCH loaded on Anti-GST sensor, fit per sensor, Stomid Conc. (mM) 200-3.12, rep-1, rep-2): 4370 M⁻¹ s⁻¹
